Laboratory results published in PMC9724349, “Discovery of a pyrano[2,3-b]pyridine derivative YX-2102 as a cannabinoid receptor 2 agonist for alleviating lung fibrosis” (Journal of Translational Medicine, 2022).

Target: T1, cannabinoid receptor 2 (CB2R) (Homo sapiens, UniProt P34972)
T1 construct: gene CNR2
Assay: radioligand binding assay, [3H]CP […] displacement

T1 sequence (P34972 whole entry): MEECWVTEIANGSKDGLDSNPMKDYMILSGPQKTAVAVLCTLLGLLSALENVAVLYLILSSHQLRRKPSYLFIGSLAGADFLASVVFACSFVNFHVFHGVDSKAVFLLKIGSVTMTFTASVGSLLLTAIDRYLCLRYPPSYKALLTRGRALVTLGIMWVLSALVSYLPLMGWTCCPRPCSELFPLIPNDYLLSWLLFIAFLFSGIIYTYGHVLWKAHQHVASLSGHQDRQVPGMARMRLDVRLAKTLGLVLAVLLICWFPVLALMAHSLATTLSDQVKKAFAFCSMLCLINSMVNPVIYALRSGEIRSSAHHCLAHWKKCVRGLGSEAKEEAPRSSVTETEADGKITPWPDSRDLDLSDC

SMILES: CCOC(=O)C1=CC(c2cccc(C)c2)C2CCC(CC(=O)c3ccccc3)OC2N1S(=O)(=O)c1ccc(C)cc1 (stereo not shown) [YX-2102]
- Ki: 350 nM
